Converted amounts (≈) assume the structure as drawn.
How the values were obtained:
Pseudomonas aeruginosa [1] = assay: Antibacterial activity against Pseudomonas aeruginosa by two-fold serial dilution technique; format: functional
Escherichia coli [2] = assay: Antibacterial activity against Escherichia coli by two-fold serial dilution technique; format: functional
Staphylococcus aureus [3] = assay: Antibacterial activity against Staphylococcus aureus by two-fold serial dilution technique; format: functional
Bacillus subtilis [4] = assay: Antibacterial activity against Bacillus subtilis by two-fold serial dilution technique; format: functional
Shigella dysenteriae = assay: Antibacterial activity against Shigella dysenteriae after 24 hrs by agar well diffusion technique; format: functional
Escherichia coli [5] = assay: Antibacterial activity against Escherichia coli ATCC 25922 after 24 hrs by agar well diffusion technique; format: functional; conditions: ATCC 25922, 24 h
Bacillus cereus = assay: Antibacterial activity against Bacillus cereus after 24 hrs by agar well diffusion technique; format: functional
Staphylococcus aureus [6] = assay: Antibacterial activity against Staphylococcus aureus ATCC 25923 after 24 hrs by agar well diffusion technique; format: functional; conditions: ATCC 25923, 24 h
Klebsiella pneumoniae [7] = assay: Antibacterial activity against Klebsiella pneumoniae after 24 hrs by paper disc diffusion technique; format: functional; conditions: Klebsiella pneumoniae, 24 h; read-out: MIC
Pseudomonas aeruginosa [8] = assay: Antibacterial activity against Pseudomonas aeruginosa after 24 hrs by paper disc diffusion technique; format: functional; conditions: Pseudomonas aeruginosa, 24 h; read-out: MIC
Micrococcus luteus = assay: Antibacterial activity against Micrococcus luteus after 24 hrs by paper disc diffusion technique; format: functional; conditions: Micrococcus luteus, 24 h; read-out: MIC
Escherichia coli [9] = assay: Antibacterial activity against Escherichia coli after 24 hrs by paper disc diffusion technique; format: functional; conditions: Escherichia coli, 24 h; read-out: MIC
Staphylococcus aureus [10] = assay: Antibacterial activity against Staphylococcus aureus after 24 hrs by paper disc diffusion technique; format: functional; conditions: Staphylococcus aureus, 24 h; read-out: MIC
[11] = test system: Staphylococcus epidermidis; assay: Antibacterial activity against Staphylococcus epidermidis after 24 hrs by paper disc diffusion technique; format: functional; conditions: Staphylococcus epidermidis, 24 h; read-out: MIC
Pseudomonas aeruginosa [12] = assay: Antibacterial activity against Pseudomonas aeruginosa; format: functional, organism-based
Escherichia coli [13] = assay: Antibacterial activity against Escherichia coli; format: functional, organism-based
Bacillus subtilis [14] = assay: Antibacterial activity against Bacillus subtilis; format: functional
Staphylococcus aureus [15] = assay: Antibacterial activity against Staphylococcus aureus; format: functional, organism-based
Shigella flexneri = assay: Antibacterial activity against Shigella flexneri; format: functional
Proteus vulgaris = assay: Antibacterial activity against Proteus vulgaris; format: functional
Streptococcus pyogenes = assay: Antibacterial activity against Streptococcus pyogenes; format: functional
Klebsiella pneumoniae [16] = assay: Antibacterial activity against Klebsiella pneumoniae; format: functional

Cc1ccc2c(c1)/C(=N/NC(=O)N/N=C1\C(=O)Nc3ccc(C)cc31)C(=O)N2
MIC (Pseudomonas aeruginosa [1]): 6.25 to 100 µg/mL (≈ 16.6 to 266 µM)
MIC (Escherichia coli [2]): 6.25 to 100 µg/mL (≈ 16.6 to 266 µM)
MIC (Staphylococcus aureus [3]): 6.25 to 100 µg/mL (≈ 16.6 to 266 µM)
MIC (Bacillus subtilis [4]): 6.25 to 100 µg/mL (≈ 16.6 to 266 µM)

Cc1cc(NS(=O)(=O)c2ccc(/N=C3\C(=O)N(CO)c4ccccc43)cc2)no1
MIC (Shigella dysenteriae): 1 to 15 µg/mL (≈ 2.42 to 36.4 µM)
MIC (Escherichia coli [5]): 1 to 15 µg/mL (≈ 2.42 to 36.4 µM)
MIC (Bacillus cereus): 1 to 15 µg/mL (≈ 2.42 to 36.4 µM)
MIC (Staphylococcus aureus [6]): 1 to 15 µg/mL (≈ 2.42 to 36.4 µM)

O=C(O)c1cn(C2CC2)c2cc(N3CCN(CN4C(=O)/C(=N/c5ccc(/N=C/c6ccc([N+](=O)[O-])cc6)cc5)c5cc(F)ccc54)CC3)c(F)cc2c1=O
MIC (Klebsiella pneumoniae [7]): 7.81 to 125 µg/mL (≈ 10.7 to 171 µM)
MIC (Pseudomonas aeruginosa [8]): 7.81 to 125 µg/mL (≈ 10.7 to 171 µM)
MIC (Micrococcus luteus): 7.81 to 125 µg/mL (≈ 10.7 to 171 µM)
MIC (Escherichia coli [9]): 7.81 to 125 µg/mL (≈ 10.7 to 171 µM)
MIC (Staphylococcus aureus [10]): 7.81 to 125 µg/mL (≈ 10.7 to 171 µM)
MIC [11]: 7.81 to 125 µg/mL (≈ 10.7 to 171 µM)

[N-]=[N+]=Nc1ccc(C2=NN(C(=O)CN3C(=O)C(=O)c4ccccc43)C(c3ccc(F)cc3)C2)cc1 (stereo not given)
MIC (Pseudomonas aeruginosa [12]): 6.25 to 50 µg/mL (≈ 13.3 to 107 µM)
MIC (Escherichia coli [13]): 6.25 to 50 µg/mL (≈ 13.3 to 107 µM)
MIC (Bacillus subtilis [14]): 6.25 to 50 µg/mL (≈ 13.3 to 107 µM)
MIC (Staphylococcus aureus [15]): 6.25 to 50 µg/mL (≈ 13.3 to 107 µM)

O=C(O)c1cn(C2CC2)c2cc(N3CCN(CN4C(=O)/C(=N/c5ccc(/N=C/c6ccccc6)cc5)c5cc(F)ccc54)CC3)c(F)cc2c1=O
MIC (Klebsiella pneumoniae [7]): 7.81 to 125 µg/mL (≈ 11.4 to 182 µM)
MIC (Pseudomonas aeruginosa [8]): 7.81 to 125 µg/mL (≈ 11.4 to 182 µM)
MIC (Micrococcus luteus): 7.81 to 125 µg/mL (≈ 11.4 to 182 µM)
MIC (Escherichia coli [9]): 7.81 to 125 µg/mL (≈ 11.4 to 182 µM)
MIC (Staphylococcus aureus [10]): 7.81 to 125 µg/mL (≈ 11.4 to 182 µM)
MIC [11]: 7.81 to 125 µg/mL (≈ 11.4 to 182 µM)

O=C(N/N=C1\C(=O)Nc2ccccc21)N/N=C1\C(=O)Nc2ccccc21
MIC (Pseudomonas aeruginosa [1]): 6.25 to 100 µg/mL (≈ 17.9 to 287 µM)
MIC (Escherichia coli [2]): 6.25 to 100 µg/mL (≈ 17.9 to 287 µM)
MIC (Staphylococcus aureus [3]): 6.25 to 100 µg/mL (≈ 17.9 to 287 µM)
MIC (Bacillus subtilis [4]): 6.25 to 100 µg/mL (≈ 17.9 to 287 µM)

CC1(C)S[C@@H]2[C@H](NC(=O)[C@H](N)c3ccccc3)C(=O)N2[C@H]1C(=O)O [AMPICILLIN]
MIC (Shigella flexneri): 0.007 to 1.95 µg/mL (≈ 0.02 to 5.58 µM)
MIC (Proteus vulgaris): 0.007 to 1.95 µg/mL (≈ 0.02 to 5.58 µM)
MIC (Bacillus subtilis [14]): 0.007 to 1.95 µg/mL (≈ 0.02 to 5.58 µM)
MIC (Staphylococcus aureus [15]): 0.007 to 1.95 µg/mL (≈ 0.02 to 5.58 µM)
MIC (Streptococcus pyogenes): 0.007 to 1.95 µg/mL (≈ 0.02 to 5.58 µM)
MIC (Klebsiella pneumoniae [16]): 0.007 to 1.95 µg/mL (≈ 0.02 to 5.58 µM)

O=C(O)c1cn(C2CC2)c2cc(N3CCN(CN4C(=O)/C(=N/c5ccc(/N=C/c6cccc([N+](=O)[O-])c6)cc5)c5cc(F)ccc54)CC3)c(F)cc2c1=O
MIC (Klebsiella pneumoniae [7]): 7.81 to 125 µg/mL (≈ 10.7 to 171 µM)
MIC (Pseudomonas aeruginosa [8]): 7.81 to 125 µg/mL (≈ 10.7 to 171 µM)
MIC (Micrococcus luteus): 7.81 to 125 µg/mL (≈ 10.7 to 171 µM)
MIC (Escherichia coli [9]): 7.81 to 125 µg/mL (≈ 10.7 to 171 µM)
MIC (Staphylococcus aureus [10]): 7.81 to 125 µg/mL (≈ 10.7 to 171 µM)
MIC [11]: 7.81 to 125 µg/mL (≈ 10.7 to 171 µM)

— ChEMBL document CHEMBL4613208, “Isatin derivatives and their anti-bacterial activities” (Eur J Med Chem, 2019)
